Experiment [1] deals with His-GST-TVMV-hRIPK1 (1-324) (Homo sapiens (Human), UniProt Q13546). The experiment is described as follows: RIPK1 HTRF Binding Assay. Conditions: read-out: RIPK1 HTRF (IC50); FRET probe displacement, 1 h at rt. (In TR-FRET formats the signal depends on donor and acceptor labels being close together.)
For experiment [2], the system named is MLKL phosphorylation in HT29-L23 human colorectal adenocarcinoma cells. The experiment is described as follows: MLKL Phosphorylation High-Content Assay. The class given is cell-based. The note with it: 6 h, necroptosis induced with TNFα, SMAC mimetic and Z-VAD, read-out: pMLKL (IC50). An outline of the steps:
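Following fixation and staining for phospho-S358 MLKL with Hoechst nuclear counterstain, high-content imaging quantified phosphorylation in HT29-L23 cells challenged 6 h with TNFα 35 ng/mL, SMAC mimetic 700 nM and Z-VAD 140 nM. Nec-1s at 6.25 μM defined full inhibition; 4-parameter logistic fits yielded IC50 and Ymax.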

The structures appear in SMILES notation. pIC50: −log10 of the molar value. Where a name gives a salt, the structure may show the parent alone. Read-outs that look alike come from different tables or passages of the source.

The values that follow come from US12172975B2, “1H-indazole carboxamides as receptor-interacting protein kinase 1 inhibitors (RIPK1)” (BRISTOL-MYERS SQUIBB COMPANY, priority 2018, dated 2024).

His-GST-TVMV-hRIPK1 (1-324), sequence (Q13546 1-324): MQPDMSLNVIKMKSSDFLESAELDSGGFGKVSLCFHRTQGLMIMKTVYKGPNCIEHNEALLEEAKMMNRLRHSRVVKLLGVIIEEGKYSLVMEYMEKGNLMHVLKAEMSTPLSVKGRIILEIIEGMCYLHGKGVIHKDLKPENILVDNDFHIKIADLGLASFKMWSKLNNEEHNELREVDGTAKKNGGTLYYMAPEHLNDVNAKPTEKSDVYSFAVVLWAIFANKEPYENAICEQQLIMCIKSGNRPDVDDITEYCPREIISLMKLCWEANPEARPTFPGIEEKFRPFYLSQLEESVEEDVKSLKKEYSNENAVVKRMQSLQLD

`CNC(=O)c1n[nH]c2cc(-c3cnc(OC)c(C(=O)NCc4cc(F)cc(F)c4OCC4CC4)c3)ccc12` [Example 128, 6-[5-({[2-(cyclopropylmeth-oxy)-3,5-difluorophenyl]-methyl}carbamoyl)-6-meth-oxypyridin-3-yl]-N-methyl-1H-indazole-3-carboxamide]: the results for the pIC50 in experiment [1] and in experiment [2] (Homo sapiens) were 8.64 and 8.51, respectively.
On to `CNC(=O)c1n[nH]c2cc(-c3cnc(OC)c(C(=O)NCc4cc(F)ccc4OC(C)C)c3)ccc12` [Example 130, 6-[5-({[5-fluoro-2-(propan-2-yloxy)phenyl]methyl}carbam-oyl)-6-methoxy-pyridin-3-yl]-N-methyl-1H-indazole-3-carboxamide], for which the pIC50 (usually −log10 of the IC50, conventionally taken in molar units) in experiment [1] was 8.72; in experiment [2] it was 8.41.
On to `CNC(=O)c1n[nH]c2cc(-c3cnc(OC)c(C(=O)NCc4ccccc4OC4CCC(C)C4)c3)ccc12` (stereo not shown) [Example 131, 6-{6-methoxy-5-[({2-[(3-methylcyclopentyl)oxy]-phenyl}methyl)carbamoyl]-pyridin-3-yl}-N-methyl-1H-indazole-3-carboxamide], for which the values for the pIC50 in experiment [1] and in experiment [2] (Homo sapiens) were 8.00 and 8.64, respectively.
Take `CNC(=O)c1n[nH]c2cc(-c3cnc(OC)c(C(=O)NC4CCCC(C(=O)N5CC(F)(F)C5)C4)c3)ccc12` (stereo not shown) [Example 132, 6-(5-{[3-(3,3-difluoroazet-idine-1-carbonyl)cyclohexyl]-carbamoyl}-6-methoxypyridin-3-yl)-N-methyl-1H-indazole-3-carboxamide, TFA]: the pIC50 is 7.46 in experiment [1] and 6.85 in experiment [2].
As for `CNC(=O)c1n[nH]c2cc(-c3cnc(OC)c(C(=O)N4CCC[C@@H](Cc5ccc(F)cc5)C4)c3)ccc12` [Example 134, 6-{5-[(3S)-3-[(4-fluorophenyl)-methyl]piperidine-1-carbonyl]-6-methoxy-pyridin-3-yl}-N-methyl-1H-indazole-3-carbox-amide, TFA], the pIC50 in experiment [1] was 7.77; in experiment [2] it was 8.14.
Regarding `CNC(=O)c1n[nH]c2cc(-c3cnc(OC)c(C(=O)NCc4cc(OC(F)(F)F)ccc4F)c3)ccc12` [Example 137], the pIC50 is 8.80 in experiment [1] and 8.54 in experiment [2].
As for `CNC(=O)c1n[nH]c2cc(-c3cnc(OC)c(C(=O)NCC4CCCCC4)c3)ccc12` [Example 138, 6-{5-[(cyclohexylmethyl)-carbamoyl]-6-methoxy-pyridin-3-yl}-N-methyl-1H-indazole-3-carboxamide], the pIC50 in experiment [1] was 7.92; in experiment [2] (Homo sapiens) it was 7.05.
Turning to `CNC(=O)c1n[nH]c2cc(-c3cnc(OC)c(C(=O)NCC4(C(=O)OC5CCCC5)CC4)c3)ccc12` [Example 140, cyclopentyl 1-[({2-methoxy-5-[3-(methylcarbamoyl)-1H-indazol-6-yl]pyridin-3-yl}-formamido)methyl]cyclopro-pane-1-carboxylate], the results for the pIC50 in experiment [1] and in experiment [2] were 8.16 and 7.74, respectively.
Turning to `CNC(=O)c1n[nH]c2cc(-c3cnc(OC)c(C(=O)NCc4cc(C(F)(F)F)ccn4)c3)ccc12` [Example 143, 6-[6-methoxy-5-({[4-(trifluoro-methyl)pyridin-2-yl]methyl}-carbamoyl)pyridin-3-yl]-N-methyl-1H-indazole-3-carboxamide], the negative logarithm of the IC50 (pIC50) is 7.55 in experiment [1] and 7.59 in experiment [2] (Homo sapiens).
Turning to `CNC(=O)c1n[nH]c2cc(-c3cnc(OC)c(C(=O)NCC[C@H](O)c4ccc(Cl)cc4)c3)cc(F)c12` [Example 145, 6-(5-{[(3S)-3-(4-chloro-phenyl)-3-hydroxypropyl]-carbamoyl}-6-methoxy-pyridin-3-yl)-4-fluoro-N-methyl-1H-indazole-3-carboxamide], the values for the pIC50 in experiment [1] and in experiment [2] (Homo sapiens) were 8.02 and 6.70, respectively.
On the same counts, the results for `CNC(=O)c1n[nH]c2cc(-c3cnc(OC)c(C(=O)N[C@@H](C)CC(=O)OC(C)(C)C)c3)cc(F)c12` [Example 146, tert-butyl (3S)-3-({5-[4-fluoro-3-(methylcarbamoyl)-1H-indazol-6-yl]-2-methox-pyridin-3-yl}formamido)-butanoate] are 7.16 and 6.40.
The like results for `[2H]C([2H])([2H])NC(=O)c1n[nH]c2cc(-c3cnc(OC)c(C(=O)NCC(C)(C)C(=O)OC4CCOCC4)c3)ccc12` [Example 148, oxan-4-yl 3-[(2-methoxy-5-{3-[(deutero)methylcarbamoyl]-1H-indazol-6-yl}pyridin-3-yl)formamido]-2,2-dimethyl-propanoate] were, in that order, 7.27 and 7.02.
Turning to `[2H]C([2H])([2H])NC(=O)c1n[nH]c2cc(-c3cnc(OC)c(C(=O)NCC(C)(C)C(=O)OC(C)(C)C)c3)ccc12` [Example 149, tert-butyl 3-[(2-methoxy-5-{3-[(deutero)methylcarbamoyl]-1H-indazol-6-yl}pyridin-3-yl)-formamido]-2,2-dimethyl-propanoate], the figures for the pIC50 in experiment [1] and in experiment [2] (Homo sapiens) were 7.48 and 7.13, respectively.
In the case of `[2H]C([2H])([2H])NC(=O)c1n[nH]c2cc(-c3cnc(OC)c(C(=O)NCCC(=O)OC(C)(C)C)c3)ccc12` [Example 150, tert-butyl 3-[(2-methoxy-5-{3-[(deutero)methylcarbamoyl]-1H-indazol-6-yl}pyridin-3-yl)-formamido]propanoate], the negative-log IC50 (pIC50) was 7.49 in experiment [1] and 6.96 in experiment [2] (Homo sapiens).
On to `[2H]C([2H])([2H])NC(=O)c1n[nH]c2cc(-c3cnc(OC)c(C(=O)NC(C)c4ccccc4OC(F)(F)F)c3)ccc12` (stereo not shown) [Example 152, 6-[6-methoxy-5-({1-[2-(tri-fluoromethoxy)phenyl]ethyl}-carbamoyl)pyridin-3-yl]-N-(deutero)methyl-1H-indazole-3-carboxamide], for which the pIC50 is 7.70 in experiment [1] and 8.48 in experiment [2] (Homo sapiens).
With `[2H]C([2H])([2H])NC(=O)c1n[nH]c2cc(-c3cnc(OC)c(C(=O)NCc4ccccc4OC(F)(F)F)c3)ccc12` [Example 153], the pIC50 in experiment [1] was 8.54; in experiment [2] (Homo sapiens) it was 8.20.
Turning to `CNC(=O)c1n[nH]c2cc(-c3cnc(C)c(C(=O)N[C@H]4CC[C@@H](c5ccccc5)C4)c3)ccc12` [Example 154, N-methyl-6-(6-methyl-5-{[(1S,3R)-3-phenylcyclopentyl]carbamoyl}-pyridin-3-yl)-1H-indazole-3-carbox-amide], the pIC50 in experiment [1] was 8.54; in experiment [2], 7.24.
As for `CNC(=O)c1n[nH]c2cc(-c3cnc(C)c(C(=O)NCc4cc(F)ccc4OC4CCCC4)c3)ccc12` [Example 157, 6-[5-({[2-(cyclopentyloxy)-5-fluoro-phenyl]methyl}carbamoyl)-6-methylpyridin-3-yl]-N-methyl-1H-indazole-3-carboxamide, TFA], the negative-log IC50 (pIC50) in experiment [1] is 8.68; in experiment [2] (Homo sapiens), 8.17.
The like results for `CNC(=O)c1n[nH]c2cc(-c3cc(C(=O)NC(C)c4ccccc4OC(F)(F)F)c(OC)nc3C)ccc12` (stereo not shown) [Example 158, 6-[6-methoxy-2-methyl-5-({1-[2-(trifluoromethoxy)-phenyl]ethyl}carbamoyl)-pyridin-3-yl]-N-methyl-1H-indazole-3-carboxamide] were, in that order, 7.46 and 7.68.
The like results for `CNC(=O)c1n[nH]c2cc(-c3cc(C(=O)NCC4CCCC4(C)C)c(OC)nc3C)ccc12` (stereo not shown) [Example 159, 6-(5-{[(2,2-dimethylcyclo-pentyl)methyl]carbamoyl}-6-methoxy-2-methyl-pyridin-3-yl)-N-methyl-1H-indazole-3-carboxamide] were, in that order, 7.47 and 6.96.
